Patent US20060094780A1, “Novel antibiotic compounds” (priority 2000, published 2006)

What was measured:
Format in all cases: cell-based
[1] = system: Bacillus subtilis ATCC strain 6633; assay: filter paper disk / disc diffusion assay on Bacillus subtilis plate
Procedure: The Bacillus subtilis ATCC strain 6633 was used at 9.2 mL of a log phase culture with […] per 200 mL of Luria-Bertani medium containing 1.5% (w/v) agar. The plate was incubated at 28° C. for 24 hours and the diameter of the clearing zone was measured. Dilutions of the extract and fractions from HPLC chromatography were tested in the same way. In some cases, fractions from the column were tested by evaporating them to dryness, redissolving in methanol and simply spotting 10 μL of the methanolic sample directly onto the bacteriological plate and proceeding as described.

[2] = system: Bacillus subtilis ATCC strain 6633; assay: NCCLS broth microdilution test, minimum inhibitory concentration; conditions: for minimum inhibitory concentration / MIC: B. subtilis; for antimicrobial activity / potency (in words): against the target organism B. subtilis; for MIC: Bacillus subtilis, ATCC6633
Procedure: Minimum inhibitory concentrations with Bacillus subtilis ATCC strain 6633 were determined using the National Committee for Clinical Laboratory Standards broth microdilution test (NCCLS, 2000. NCCLS Document M7-A5—Methods for Dilution Antimicrobial Susceptibility Tests for Bacteria that Grow Aerobically, Approved Standard—Fifth Edition). The test was standardised using penicillin G and gentamicin with Staphyloccous aureus ATCC strains 29213 and 25923 and Enterococcus faecalis ATCC strain 29212. Results of standardisation were assessed according to the NCCLS standards (NCCLS, 2000. NCCLS Document M100-S10(M7)—Performance Standards for Antimicrobial Susceptibility Testing; Tenth Informational Supplement (Aerobic Dilution). NCCLS, Wayne, Pa.).

[3] = system: NCl-H460, a human-derived small cell lung carcinoma line; assay: mammalian cell growth, WST-1 proliferation assay; conditions: concentrations up to 100 μg/mL, 19 hours at 37° C.
Procedure: (§1) Effects on mammalian cell growth were determined by exposing cultures of two mammalian neoplastic cell lines (SP2/0—Ag8, a non-secreting mouse myeloma cell line derived from Balb/C mice, and NCl-H460, a human-derived […] lung carcinoma line) to fixed dilutions of the methanolic extract of N. triodiae or to fixed concentrations of fraction 23, (6) for 19 hours at 37° C. Cells were grown in wells of sterile 96-well tissue culture cluster plates by standard methods. Cell growth was estimated using the Cell Proliferation Reagent WST-1 (Roche Diagnostics) according to the manufacturer's instructions and proliferation data were compared with those from untreated control wells.

[4] = system: SP2/0—Ag8, a non-secreting mouse myeloma cell line; assay: mammalian cell growth, WST-1 proliferation assay; conditions: concentrations up to 30 μg/mL, 19 hours at 37° C.
Procedure: as §1

[5] = unknown concentration and mass of the compound, disc diffusion assay

| Molecule | antimicrobial activity / potency (in words) [2] | minimum inhibitory concentration ([2]; as restated in the discussion) | MIC ([2]; broth microdilution, estimated) | clear zone diameter [1, 5] | also measured |
| --- | --- | --- | --- | --- | --- |
| 1(15),8(19)-trinervitadiene-3α,5α,18-triol 3,5,18-triacetate [Compound 10] | reduced but detectable antimicrobial activity | – | – | – | clear zone diameter ([1]; 5 μg of compound, disc diffusion assay): 11 mm; minimum inhibitory concentration ([2]; broth microdilution, estimated): > 50 µg/mL; antimicrobial activity / potency (in words) ([2]; listed as triacetate): active, albeit less potent than the diols or triol |
| C=C1CCC[C@H](C)CCC2=C(C)[C@@H]3[C@H]1C[C@@H](O)[C@]3(CO)[C@@H](O)C2 [Compound 6, 1(15),8(19)-trinervitadiene-3α,5α,18-triol] | moderately good antimicrobial potency | ≤ 50 parts per million | ≤ 50 µg/mL | – | antimicrobial activity of extracts and HPLC fractions (in words) ([1]; B. subtilis plate test): antimicrobial activity was detected; inhibitory effect on proliferation of NCl-H460 cells [3]: no detectable inhibitory effect; inhibitory effect on proliferation of SP2/0 cells [4]: no detectable inhibitory effect |
| CC1=C2CC[C@@H](C)CC/C=C(/C)[C@@H]3CC[C@@](C)([C@H]13)[C@@H](O)[C@@H]2O [Compound 9, 1(15),8(9)-trinervitadiene-2β,3α-diol] | – | ≤ 25 parts per million | ≤ 25 µg/mL | 15 mm | antimicrobial potency relative to the triol (6) and diol (7) ([2]; fold more potent): 2-4 times; significant inhibitory activity as low as ([2]; lowest concentration with significant inhibitory activity): 12 parts per million |
| C=C1CCC[C@H](C)CCC2=C(C)[C@@H]3[C@H]1C[C@@H](O)[C@]3(C)[C@@H](O)C2 [Compound 7, 1(15),8(19)-trinervitadiene-3α,5α-diol] | reduced but detectable antimicrobial activity | – | ≤ 50 µg/mL | – | zone of inhibition at 5 µg/disc ([1]; Bacillus subtilis, ATCC6633, 5 μg of compound, disc diffusion assay, read-out: clear zone diameter): 7 mm |
| C=C1CCC[C@H](C)CCC2=C(C)[C@@H]3[C@H]1C[C@@H](OC(C)=O)[C@]3(CO)[C@@H](O)C2 [Compound 8, 1(15),8(19)-trinervitadiene-3α,5α,18-triol 5-acetate] | reduced but detectable antimicrobial activity | – | > 50 µg/mL | 15 mm | antimicrobial activity / potency (in words) ([2]; listed as monoacetate): active, albeit less potent than the diols or triol |
